Measured values as given in US9168259B2 (GRÜNENTHAL GMBH, priority 2010, dated 2015).

Biological target: T1, KCNQ2/3 channels (Homo sapiens, UniProt O43525+O43526)
T1 construct: expressed in transfected cells
Assay: Fluorescence assay using a voltage sensitive dye (fluorimetry)
Type: cell-based
Details: CHO-K1 cells expressing KCNQ2/3; for Emax: CHO-K1, plateau effect relative to saturated retigabine (50 μM) = 100%, negative values = antagonistic, read-out: Fluorimetry % efficacy (retigabine = 100%); for EC50: IC50 where % efficacy is negative, read-out: Fluorimetry EC50/IC50
Text: Method I. Fluorescence Assay Using a Voltage Sensitive Dye (Fluorimetry)
These voltage-sensitive dyes are fluorescent dyes and, therefore, are forming the link between cell potential influenced by KCNQ modulation and fluorescence intensity. A KCNQ agonist leads to an opening of the channel, potassium and dye efflux, a following hyperpolarization and a reduction of the inner fluorescence intensity in a kinetic protocol. If applying an ion jump by KCl depolarization, KCNQ agonists increase the ΔF/F value. An antagonist performs vice versa, respectively.
Therefore, ‘fluorimetry EC50’ is a measure for the compound potency. The compound efficacy is mirrored by ‘fluorimetry % efficacy’ (‘% Efficacy’) and refers to the maximum response achievable by the test compound, i.e. the plateau effect. This drug's plateau effect is related to the plateau effect, which can be achieved by applying a saturated concentration of a reference compound, e.g. Retigabine (50 μM), in independent wells of the same experimental plate or series.
[…] CHO-K1 cells expressing KCNQ2/3 channels are cultivated adherently at 37° C., 5% CO2 and 95% humidity in cell culture bottles (e.g. 80 cm^2 TC flasks, Nunc) with DMEM-high glucose (Sigma Aldrich, D7777) including 10% FCS (PAN Biotech, e.g. 3302-P270521) or alternatively MEM Alpha Medium (1×, liquid, Invitrogen, #22571), 10% fetal calf serum (FCS) (Invitrogen, #10270-106, heat-inactivated) and the necessary selection antibiotics.
The cell number is determined using a CASY™ cell counter (TCC, Schärfe System). Depending on the optimal density for each individual cell line, 20,000-30,000 cells/well/100 μl are seeded onto 96-well Corning™ CellBIND™ assay plates (Flat Clear Bottom Black Polystyrene Microplates, #3340). Freshly seeded cells are then left to settle for one hour at room temperature, followed by incubation for 24 hours at 37° C., 5% CO2 and 95% humidity.
The voltage-sensitive fluorescent dye from the Membrane Potential Assay Kit (Red™ Bulk format part R8123 for FLIPR, MDS Analytical Technologies™) is prepared by dissolving the contents of one vessel Membrane Potential Assay Kit Red Component A in 200 ml of extracellular buffer (ES buffer, 120 mM NaCl, 1 mM KCl, 10 mM HEPES, 2 mM CaCl2, 2 mM MgCl2, 10 mM glucose; pH 7.4). After removal of the nutrient medium, the cells are washed once with 200 μl of ES buffer, then loaded for 45 min at room temperature in 100 μl of dye solution in the dark.
Fluorescence measurements are carried out in a BMG Labtech FLUOstar™, BMG Labtech NOVOstar™ or BMG Labtech POLARstar™ instrument (525 nm excitation, 560 nm emission, Bottom Read mode). After incubation with the dye, 50 μl of the test substances in the desired concentrations, or 50 μl of ES buffer for control purposes, are applied to the wells of the assay plate and incubated for 30 min at room temperature while being shielded from light. The fluorescence intensity of the dye is then measured for 5 min and the fluorescence value F1 of each well is thus determined at a given, constant time. 15 μl of a KCl solution are then added to each well (final concentration of potassium ions 92 mM). The change in fluorescence intensity is subsequently monitored until all the relevant values have been obtained (mainly 5-30 min). At a given time post KCl application, a fluorescence value F2 is determined, in this case at the time of the fluorescence peak.
For calculation, the fluorescence intensity F2 is corrected for the fluorescence intensity F1, and the activity (ΔF/F) of the target compound on the potassium channel is determined as follows:
In order to determine whether a substance has agonistic activity,
[formula] can be related to
[formula] of control wells.
[formula] is determined by adding to the well only the buffer solution instead of the test substance, determining the value F1K of the fluorescence intensity, adding the potassium ions as described above, and measuring a value F2K of the fluorescence intensity.

T1 sequence (O43526 whole entry): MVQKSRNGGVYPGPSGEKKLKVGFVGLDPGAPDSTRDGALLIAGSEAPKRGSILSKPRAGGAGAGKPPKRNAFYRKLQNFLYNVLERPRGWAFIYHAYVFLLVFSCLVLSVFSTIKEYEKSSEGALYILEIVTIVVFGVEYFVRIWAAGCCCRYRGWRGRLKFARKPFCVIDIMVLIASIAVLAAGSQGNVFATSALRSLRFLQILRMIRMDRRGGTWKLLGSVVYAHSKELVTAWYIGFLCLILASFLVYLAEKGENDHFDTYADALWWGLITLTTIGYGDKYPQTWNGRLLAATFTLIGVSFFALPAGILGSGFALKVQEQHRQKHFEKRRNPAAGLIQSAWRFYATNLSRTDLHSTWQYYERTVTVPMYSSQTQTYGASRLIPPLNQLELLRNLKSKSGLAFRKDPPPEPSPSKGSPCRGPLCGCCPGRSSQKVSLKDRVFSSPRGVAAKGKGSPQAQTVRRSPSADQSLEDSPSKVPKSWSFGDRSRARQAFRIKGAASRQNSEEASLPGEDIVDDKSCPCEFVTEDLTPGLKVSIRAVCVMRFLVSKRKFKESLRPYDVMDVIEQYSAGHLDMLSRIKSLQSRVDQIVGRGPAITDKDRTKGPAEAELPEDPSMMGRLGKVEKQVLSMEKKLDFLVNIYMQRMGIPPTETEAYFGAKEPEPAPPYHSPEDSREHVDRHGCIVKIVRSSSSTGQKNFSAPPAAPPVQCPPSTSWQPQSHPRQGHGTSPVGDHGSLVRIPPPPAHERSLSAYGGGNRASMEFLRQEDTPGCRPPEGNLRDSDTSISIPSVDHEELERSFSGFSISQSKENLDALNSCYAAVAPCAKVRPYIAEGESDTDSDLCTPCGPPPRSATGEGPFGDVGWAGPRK
T1 sequence (O43525 whole entry): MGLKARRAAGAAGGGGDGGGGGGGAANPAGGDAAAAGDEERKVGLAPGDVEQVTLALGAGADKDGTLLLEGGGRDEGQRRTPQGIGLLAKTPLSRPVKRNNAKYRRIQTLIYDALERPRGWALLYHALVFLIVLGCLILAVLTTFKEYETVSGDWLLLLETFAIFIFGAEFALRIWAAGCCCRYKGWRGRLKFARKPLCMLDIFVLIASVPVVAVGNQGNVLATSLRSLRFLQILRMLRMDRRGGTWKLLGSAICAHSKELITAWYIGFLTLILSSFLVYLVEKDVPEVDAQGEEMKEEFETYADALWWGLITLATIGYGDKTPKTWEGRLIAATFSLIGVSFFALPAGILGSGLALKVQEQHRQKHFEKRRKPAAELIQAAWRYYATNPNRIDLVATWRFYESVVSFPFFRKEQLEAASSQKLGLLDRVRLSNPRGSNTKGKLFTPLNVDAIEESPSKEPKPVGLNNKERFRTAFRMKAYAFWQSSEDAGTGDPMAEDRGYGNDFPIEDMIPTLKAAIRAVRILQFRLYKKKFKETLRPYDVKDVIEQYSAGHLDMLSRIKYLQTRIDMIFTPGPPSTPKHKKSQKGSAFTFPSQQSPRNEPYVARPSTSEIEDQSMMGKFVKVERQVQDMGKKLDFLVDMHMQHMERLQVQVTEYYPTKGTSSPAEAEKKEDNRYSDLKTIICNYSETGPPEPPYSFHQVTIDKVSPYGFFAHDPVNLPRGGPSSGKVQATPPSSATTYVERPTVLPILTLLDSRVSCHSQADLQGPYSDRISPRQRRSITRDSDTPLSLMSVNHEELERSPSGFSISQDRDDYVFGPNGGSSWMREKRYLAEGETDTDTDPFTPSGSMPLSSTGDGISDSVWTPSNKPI

Compound | Emax [%] | EC50 [µM]
CCSc1nc(N2CC(O)C2)cc(C)c1C(=O)NCc1cccc(F)c1 [Example 7, 2-Ethylsulfanyl-N-[(3-fluorophenyl)-methyl]-6-(3-hydroxy-azetidin-1-yl)-4-methyl-pyridine-3-carboxylic acid amide] | 44 | 
CCSc1nc(N(CCCOC)Cc2ccc(F)cc2)cc(C)c1C(=O)NCc1cccc(F)c1 [Example 338, 2-Ethylsulfanyl-N-[(3-fluorophenyl)-methyl]-6-[(4-fluorophenyl)-methyl-(3-methoxy-propyl)-amino]-4-methyl-pyridine-3-carboxylic acid amide] | 73 | 0.32
CCC(C)c1nc(N2CCOCC2)cc(C)c1C(=O)NCCCC(C)(C)C (stereo not drawn) [Example 221, N-(4,4-Dimethyl-pentyl)-4-methyl-2-(1-methyl-propyl)-6-morpholin-4-yl-pyridine-3-carboxylic acid amide] | 259 | 0.022
COCCOc1nc(N2CCOCC2)cc(C)c1C(=O)NCc1cccc(F)c1 [Example 21, N-[(3-Fluorophenyl)-methyl]-2-(2-methoxy-ethoxy)-4-methyl-6-morpholin-4-yl-pyridine-3-carboxylic acid amide] | 146 | 1.22
CCCCCNC(=O)c1c(C)cc(N2CCOCC2)nc1SCC [Example 81, 2-Ethylsulfanyl-4-methyl-6-morpholin-4-yl-N-pentyl-pyridine-3-carboxylic acid amide] | 163 | 0.662
CCSc1nc(N2CCOCC2)cc(C)c1C(=O)NCC(C)CC(C)(C)C (stereo not drawn) [Example 306, 2-Ethylsulfanyl-4-methyl-6-morpholin-4-yl-N-(2,4,4-trimethyl-pentyl)-pyridine-3-carboxylic acid amide] | 33 | 
CCSc1nc(N2CCOCC2)cc(C)c1C(=O)NCc1cccc(C)c1 [Example 164, 2-Ethylsulfanyl-4-methyl-6-morpholin-4-yl-N-(m-tolyl-methyl)-pyridine-3-carboxylic acid amide] | 122 | 0.237
CCCc1nc(N2CCOCC2)cc(C)c1C(=O)NCCCC(C)(C)C [Example 313, N-(4,4-Dimethyl-pentyl)-4-methyl-6-morpholin-4-yl-2-propyl-pyridine-3-carboxylic acid amide] | 229 | 0.062
CSc1nc(N2CCOCC2)cc(C)c1C(=O)NCc1ccc(C(F)(F)F)cc1 [Example 157, 4-Methyl-2-methylsulfanyl-6-morpholin-4-yl-N-[[4-(trifluoromethyl)-phenyl]-methyl]-pyridine-3-carboxylic acid amide] | 127 | 0.166
Cc1cc(N2CCOCC2)nc(N(C)C)c1C(=O)NCc1cccc(F)c1 [Example 65, 2-Dimethylamino-N-[(3-fluorophenyl)-methyl]-4-methyl-6-morpholin-4-yl-pyridine-3-carboxylic acid amide] | 238 | 1.06
CCSc1nc(N2CCOCC2)cc(C)c1C(=O)NCc1ccc(S(C)(=O)=O)cc1 [Example 247, 2-Ethylsulfanyl-4-methyl-N-[(4-methylsulfonyl-phenyl)-methyl]-6-morpholin-4-yl-pyridine-3-carboxylic acid amide] | 38 | 
CCN(C)c1nc(N2CCOCC2)cc(C)c1C(=O)NCCCC(C)(C)C [Example 189, N-(4,4-Dimethyl-pentyl)-2-(ethyl-methyl-amino)-4-methyl-6-morpholin-4-yl-pyridine-3-carboxylic acid amide] | 225 | 0.284
CCSc1nc(N2C(C)COCC2C)cc(C)c1C(=O)NCc1cccc(F)c1 (stereo not drawn) [Example 262, 6-(3,5-Dimethyl-morpholin-4-yl)-2-ethylsulfanyl-N-[(3-fluorophenyl)-methyl]-4-methyl-pyridine-3-carboxylic acid amide] | 182 | 0.374
CCSc1nc(N2CCOC[C@H]2C)cc(C)c1C(=O)NCc1ccc(F)c(F)c1 [Example 225, N-[(3,4-Difluoro-phenyl)-methyl]-2-ethylsulfanyl-4-methyl-6-[(3R)-3-methyl-morpholin-4-yl]-pyridine-3-carboxylic acid amide] | 173 | 0.071
CCSc1nc(N2CCOCC2)cc(C)c1C(=O)NCc1ccccc1-c1ccccc1 [Example 50, 2-Ethylsulfanyl-4-methyl-6-morpholin-4-yl-N-[(2-phenyl-phenyl)-methyl]-pyridine-3-carboxylic acid amide] | -97 | 0.063
COc1nc(N2CCOCC2)cc(C)c1C(=O)NCCCC(F)(F)F [Example 140, 2-Methoxy-4-methyl-6-morpholin-4-yl-N-(4,4,4-trifluoro-butyl)-pyridine-3-carboxylic acid amide] | 227 | 1.12
Cc1cc(N2CCOCC2)nc(SCC(C)C)c1C(=O)NCc1cccc(F)c1 [Example 62, N-[(3-Fluorophenyl)-methyl]-4-methyl-2-(2-methyl-propylsulfanyl)-6-morpholin-4-yl-pyridine-3-carboxylic acid amide] | 164 | 0.047
CCSc1nc(N2CCOCC2)cc(C)c1C(=O)NCc1ccc2c(c1)OCO2 [Example 134, N-(1,3-Benzodioxol-5-yl-methyl)-2-ethylsulfanyl-4-methyl-6-morpholin-4-yl-pyridine-3-carboxylic acid amide] | 159 | 1.14
CCSc1nc(N2CCOCC2)cc(C)c1C(=O)NCc1cccc(Cl)c1 [Example 125, N-[(3-Chlorophenyl)-methyl]-2-ethylsulfanyl-4-methyl-6-morpholin-4-yl-pyridine-3-carboxylic acid amide] | 152 | 0.087
CCSc1nc(N2CCO[C@@H](COC)C2)cc(C)c1C(=O)NCc1ccc(Cl)cc1 [Example 254, N-[(4-Chlorophenyl)-methyl]-2-ethylsulfanyl-6-[(2R)-2-(methoxymethyl)-morpholin-4-yl]-4-methyl-pyridine-3-carboxylic acid amide] | 113 | 0.943
CCSc1nc(N2CCOCC2)cc(C)c1C(=O)NCc1ccc(F)cn1 [Example 46, 2-Ethylsulfanyl-N-[(5-fluoro-pyridin-2-yl)-methyl]-4-methyl-6-morpholin-4-yl-pyridine-3-carboxylic acid amide] | 143 | 4.83
CCCCOc1nc(N2CCOCC2)cc(C)c1C(=O)NCc1cccc(F)c1 [Example 110, 2-Butoxy-N-[(3-fluorophenyl)-methyl]-4-methyl-6-morpholin-4-yl-pyridine-3-carboxylic acid amide] | 163 | 0.071
CCSc1nc(N2CC(C)OCC2C)cc(C)c1C(=O)NCc1cccc(F)c1 (stereo not drawn) [Example 240, 6-(2,5-Dimethyl-morpholin-4-yl)-2-ethylsulfanyl-N-[(3-fluorophenyl)-methyl]-4-methyl-pyridine-3-carboxylic acid amide] | 174 | 0.394
COCCCc1nc(N2CCOCC2)cc(C)c1C(=O)NCCCC(C)(C)C [Example 354, N-(4,4-Dimethyl-pentyl)-2-(3-methoxy-propyl)-4-methyl-6-morpholin-4-yl-pyridine-3-carboxylic acid amide] | 204 | 1.54
